Assay: in vivo
Details: rat, po

Row | SMILES | AUC(0-t) at 6 h [µM·h]
1 | Cc1ccc(-n2cnc3c(sc4ncnc(NC5CC5)c43)c2=O)cc1 | 0.89
2 | COc1ccc(-n2cnc3c(sc4ncnc(NC5CC5)c43)c2=O)cc1F | 8.6

Reference: ChEMBL document CHEMBL2202982, “Synthesis and SAR development of novel mGluR1 antagonists for the treatment of chronic pain” (Bioorg Med Chem Lett, 2012)
